Results taken from doi:10.1101/670703v1 (biorxiv, 2019).

Key:
RelTt = molecular target: T1, RelTt (Thermus thermophilus, UniProt Q5SHL3); assay: ppGpp synthetase activity; type: biochemical; conditions: enzyme alone (also with 70S IC and deacylated tRNAVal)
T1 sequence (Q5SHL3 1-727): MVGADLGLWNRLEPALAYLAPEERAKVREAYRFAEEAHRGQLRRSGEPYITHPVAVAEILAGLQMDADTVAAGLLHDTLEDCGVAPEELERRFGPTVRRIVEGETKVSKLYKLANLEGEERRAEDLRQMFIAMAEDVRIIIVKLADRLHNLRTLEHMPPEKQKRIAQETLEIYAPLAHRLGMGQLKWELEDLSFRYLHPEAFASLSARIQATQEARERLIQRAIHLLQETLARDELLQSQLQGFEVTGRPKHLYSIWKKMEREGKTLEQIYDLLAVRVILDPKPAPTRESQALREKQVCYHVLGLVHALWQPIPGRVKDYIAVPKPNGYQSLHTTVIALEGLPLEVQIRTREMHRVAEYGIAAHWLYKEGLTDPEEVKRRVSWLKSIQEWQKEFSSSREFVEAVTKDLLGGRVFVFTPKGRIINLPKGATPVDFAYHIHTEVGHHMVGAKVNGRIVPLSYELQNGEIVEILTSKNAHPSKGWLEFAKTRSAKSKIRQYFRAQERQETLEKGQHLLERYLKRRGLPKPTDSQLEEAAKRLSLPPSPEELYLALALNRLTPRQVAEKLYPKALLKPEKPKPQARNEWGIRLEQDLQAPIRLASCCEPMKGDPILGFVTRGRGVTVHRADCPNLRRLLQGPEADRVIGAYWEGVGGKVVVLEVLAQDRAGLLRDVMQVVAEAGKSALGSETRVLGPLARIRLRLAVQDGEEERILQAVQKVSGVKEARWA

RelTt^NTD = molecular target: T2, RelTt^NTD (Thermus thermophilus, UniProt Q5SHL3); assay: isothermal titration calorimetry; type: binding
T2 sequence (Q5SHL3 1-355): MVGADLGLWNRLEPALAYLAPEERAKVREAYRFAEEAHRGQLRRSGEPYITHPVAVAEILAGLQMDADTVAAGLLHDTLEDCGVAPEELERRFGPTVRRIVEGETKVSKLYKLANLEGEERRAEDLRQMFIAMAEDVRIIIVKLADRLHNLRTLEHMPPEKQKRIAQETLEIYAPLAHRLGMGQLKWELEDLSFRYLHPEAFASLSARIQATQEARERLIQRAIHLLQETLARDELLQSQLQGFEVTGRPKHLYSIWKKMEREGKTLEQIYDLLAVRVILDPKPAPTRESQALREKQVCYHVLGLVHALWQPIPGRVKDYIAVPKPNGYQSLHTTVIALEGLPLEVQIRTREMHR

ppGpp synthetase activity (RelTt) | Kd (RelTt^NTD) [µM] | Structure (SMILES)
ppGpp synthetase activity of RelTt | – | Nc1nc2c(ncn2[C@@H]2O[C@H](COP(=O)(O)OP(=O)(O)O)[C@@H](OP(=O)(O)OP(=O)(O)O)[C@H]2O)c(=O)[nH]1 [ppGpp]
– | ~50 | Nc1ncnc2c1ncn2[C@@H]1O[C@H](COP(=O)(O)CP(=O)(O)OP(=O)(O)O)[C@@H](O)[C@H]1O [APCPP]
